In patent US6703370B1, “Use of ribose to treat fibromyalgia” (Bioenergy, Inc., priority 1999, dated 2004):

Tests used:
Type in all cases: in vivo, human
[1] = test system: fibromyalgia subjects; experiment: Pilot study on the effect of ribose in alleviating the symptoms of fibromyalgia (SF-36 health status profile and subject reports)
From the text: Four women subjects ranging in age from 45 to 55 were given ribose and instructed to take at least 20 grams per day, preferably divided in four doses. The recommended mode of administration was one heaping teaspoon, about five to seven grams, mixed in six to eight ounces of water, taken preferably with meals and before planned activity. Subjects were encouraged to vary the dosage according to their perceived needs. Each subject was given a health status profile (SF-36) to complete. The profile was to be filled out both before and after four weeks of ribose administration. Two of the subjects complied with filling out the profile.
Health Status Profile (SF-36):
1) General health compared to one year ago: 1=much better, 2=somewhat better, 3=about the same, 4=somewhat worse, 5=much worse
2) Energy, 2 questions, from peppy all of the time to none of the time.
3) Activities, 12 examples from vigorous to mild, scored as: limited a lot, limited a little, not limited
4) Pain: 1=none, 2=very mild, 3=mild, 4=moderate, 5=severe, 6 =very severe The results of each subject's before and after ratings are summarized in Table I.

[2] = test system: fibromyalgia patient; experiment: Alleviation of symptoms in a fibromyalgia patient (single case, oral ribose)
From the text: A patient diagnosed with fibromyalgia had been experiencing extreme muscle pain and fatigue as well as irritable bowel syndrome, disturbed sleep, and cognitive dysfunction. They had been told by their physician that they were in the worst stage of the condition and could end up in a wheel chair within a year. They began taking ribose, one teaspoonful (about 5 grams), 4 times per day. […] They continued taking it for a week then decided to observe the effects of stopping the doses of ribose, so they discontinued the protocol for one week. […] They stated that “It is without a doubt the best product I have ever been on.”

[3] = test system: patients with fibromyalgia (FM); experiment: Planned double-blind crossover study of oral ribose in fibromyalgia; conditions: 16 patients planned, 20 gm per day (10 gm bid), 4 weeks, crossover against dextrose placebo
From the text: Following the informal studies in five subjects, a protocol was written to determine whether oral ribose administration in patients with fibromyalgia (FM) can reduce symptoms of fatigue and pain and improve the subjects' quality of life. The study endpoints will be: (1) the patient's visual analog (PVA) scale for pain, (2) the patient's analog scale for fatigue, (3) the physician's global assessment (GAphs), (4) the patient's global assessment (GAPT), (5) the Western Ontario MacMaster Questionaire (WOMAC) index, (6) SF-36 quality of life form, (7) the patient's's daily activity/events log and (8) the number of days to study discontinuation, if the patient chooses to do so, based upon his/her improved condition. The study will include 16 patients with a confirmed diagnosis of FM using a double-blind crossover design. All patients who meet entrance or screening criteria will be randomly assigned to either treatment #1 (oral dextrose as a placebo) or treatment #2 (oral ribose) at a dose of 20 gm per day (10 gm bid), as a first treatment modality. Both physician and patient will be blinded to the treatment modality. Informed consent will be obtained prior to enrolment. […] All endpoint parameters will be assessed at baseline prior to treatment, after 4 weeks of treatment one, at the end of the workout period, and again following 4 weeks of treatment 2 (“crossover” treatment modality). […]

[4] = test system: fibromyalgia patients; experiment: Applicants' general finding on steady ingestion of ribose; conditions: steady ingestion two to four times per day over the course of a week
From the text: Continued ingestion leads to greater improvement, in turn allowing the patient to endure the much needed regular exercise to further relieve the painful symptoms.

[5] = after resuming, one teaspoonful 4 times per day, after 4 weeks

What does the source list for O=C[C@H](O)[C@H](O)[C@H](O)CO [ribose, D-ribose]?
General health compared to last year, after ([1]; Subject #1, 45-54, fibromyalgia for 15 years, after four weeks of ribose, at least 20 grams per day, before: much worse, after cell wraps r10-r11: somewhat better): somewhat; Activities (12 total) limited a lot, after ([1]; Subject #1, after four weeks of ribose, before: 8 of 12 limited a lot): 1 of 12 limited a; Energy, after ([1]; Subject #1, after four weeks of ribose, before: little of the time, after cell wraps r11-r12: all of the time): all of the; Pain, after ([1]; Subject #1, after four weeks of ribose, before: very severe): moderate; General health compared to last year, after ([1]; Subject #2, 50-55, fibromyalgia for several years, after four weeks of ribose, before: somewhat better): much better; Activities (12 total) limited, after ([1]; Subject #2, after four weeks of ribose, before: 2 of 12 limited a lot): 0 of 12 limited; Energy, after ([1]; Subject #2, after four weeks of ribose, before: none of the time, after cell wraps r16-r17: some of the time): some of the; Pain, after ([1]; Subject #2, after four weeks of ribose, before: severe): moderate; Energy ([1]; Subject #3): more energetic; Energy after cessation of administration ([1]; Subject #3): next-day loss of energy; Severe pain at the tender points ([1]; Subject #3): did not feel a decrease in severe pain at the tender points; Fatigue level and achiness ([1]; Subject #3, compliant with protocol, no profile): improvement in their fatigue level and less achiness; Energy when ribose is taken on feeling exhausted ([1]; Subject #4, did not follow the protocol): feel more energetic; Energy and aching after suspending ribose administration ([1]; Subjects #1 and #2, on suspending ribose): drop in energy and increase in aching within a day; Overall relief from symptoms of fibromyalgia ([1]; all subjects of the pilot study): all reported some alleviation; Irritable painful bowel syndrome [2, 5]: improved their irritable painful bowel syndrome; Pain, fatigue and morning stiffness [2, 5]: alleviated their pain, fatigue and morning stiffness; Energy and flare ups of muscle soreness ([2]; patient, about 5 grams 4 times per day, first week): more energy and fewer flare ups of muscle soreness; Symptoms on starting ribose ([2]; patient, about 5 grams 4 times per day, oral): immediate improvement in their symptoms; Symptoms after discontinuing ribose ([2]; protocol discontinued for one week): symptoms returned to their previous level; Expected alleviation of achiness, fatigue and/or pain at the tender points [3]: most of the patients will experience some alleviation of achiness, fatigue and/or pain at the tender points; Fatigue, achiness, pain, energy and irritable bowel syndrome [4]: noticeable improvement in the level of fatigue, achiness, pain, and energy, and alleviation of irritable bowel syndrome
